Data set [1] in a line: Solubility in solvents and water. Format: physicochemical.
Data set [2] is described as follows: Emission and AIE properties in solvent mixtures. Format: physicochemical. From the text: FIG. 2 depicts (A) Normalized absorption spectra of DCTB, DCPH and DNTPH in DMSO solution; (B) Normalized fluorescence (PL) spectra of DCTB, DCPH and DNTPH in aggregates; (C) Plot of the changes in fluorescence intensity with different water fraction (fw, in volume percentage, vol %), where I0 and I are the maximal fluorescence intensity recorded before and after adding water into the THF solution of DCTB. (D) Plot of the changes in fluorescence intensity with different toluene fractions (ft, in volume percentage, vol %), where I0 and I are the maximal fluorescence intensity recorded before and after adding toluene into the DMSO solution of DCPH and DNTPH respectively. [AIE dyes]=10 μM.
DCTB and DCPH were synthesized and their structure-activity relationship was investigated (FIG. 1).
However, to achieve a more obvious emission enhancement with low background signals, the TICT and AIE properties can be further modified. […] DNTPH was non-emissive in aqueous solution, and its NIR fluorescence at 683 nm was continuously intensified until the volume fraction of toluene (ft) […] was increased to about 40-fold (FIG. 2D). In addition, initial weedy fluorescence intensity of DNTPH in aqueous solution and the outstanding emission enhancement behavior in the aggregated state made it an ideal candidate for detecting protein fibrillogenesis, like Aβ aggregates.

For another data set, the target named is Aβ42 fibril (Homo sapiens, UniProt P05067). As to the kind of experiment: Fluorescent response upon binding to Aβ42 fibrils in phosphate buffer. As to conditions: titrated with Aβ42 fibril in phosphate buffer; dye 1 μM. On the procedure: FIG. 4 depicts determination of the binding constant of DNTPH for Aβ42 aggregates. (A) Plot of the PL intensity as a function of the concentration of DNTPH in the presence of Aβ42 aggregates (3 μM) in PBS solution (pH=7.4); (B)Response time of DNTPH binding to Aβ42 aggregates. […] (D) Ultrahigh S/N ratio of DNTPH toward Aβ42 aggregates compared to the background signals in PBS and that towards BSA.
Sequence of Aβ42 fibril (P05067 672-713 limits assumed): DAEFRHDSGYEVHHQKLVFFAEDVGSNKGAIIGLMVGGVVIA
It was investigated whether DNTPH has a fluorescent response upon binding to Aβ aggregates. When DNTPH was titrated with the Aβ42 fibril in phosphate buffer, a strong and progressive increase (up to about 18-fold) in red fluorescence intensity concomitant was observed, which took ˜30 min to reach a plateau. Without wishing to be bound by theory, it is believed that DNTPH is capable of binding hydrophobic surfaces in aggregated amyloid fibrils with the help of the binding unit, resulting in the decrease of conformational freedom and rotational restriction. […] That is because these three probes show high background signals, which results in low S/N ratio even with a decent fluorescent response to testing objects.

A further data set concerns PC12 cell. As to the kind of experiment: MTT cytotoxicity assay in PC12 cells. The data set is classed as cell-based. On the procedure: FIG. 7 depicts (A) Cytotoxicity towards […] PC-12 cells of Aβ monomer under 24 h and 48 h incubation. (B) Cytotoxicity of Aβ fibrils under 24 h and 48 h incubation. […] (D) Cell viability of different concentrations of DNTPH towards PC-12 cells under 24 h and 48 h incubation.
On the technique in general: Tetrazolium assays rely on reduction of a dye to a coloured formazan, in cell work by metabolically active cells.

Consider `CCN(CC)c1ccc2cc(C=Cc3cc[n+](CCO)cc3)c(=O)oc2c1.[Br-]` [DCPH], for which the solubility result in data set [1] was “more soluble in water and polar solvent”. Besides, the emission maximum in data set [2] was found to be 690 nm. The “PL intensity enhancement in aggregates compared with DMSO solution” value in data set [2] (DMSO/toluene mixtures, 99% toluene fraction (ft)) is listed as “about 2 fold”.

For `CCN(CC)c1ccc2cc(C=C(C#N)c3nc4ccccc4s3)c(=O)oc2c1` [DCTB], in data set [1], the solubility result is “soluble in THF but aggregated in water”. The emission maximum in data set [2] amounted to 601 nm. In addition, in data set [2] (THF/water, water fraction (fw) 70%), the “AIE effect, fluorescence intensity increase” value is “less than 2 fold”.

On to `Cc1ccc2c(c1)sc(-c1ccc(N(C)C)cc1)[n+]2C.[Cl-]` [ThT, thioflavin T], for which the “increase in fluorescence intensity (fluorescent response) to Aβ42 fibril” value on Aβ42 fibril turned out to be 5 fold.

Aβ monomer: monomeric amyloid-β peptide registered a cell death in the data set with PC12 cell (20 μM, 48 h incubation) of 50%. Also, in the data set on PC12 cell (5-20 μM, less than 24 h of exposure), the cytotoxicity entry is given as “No significant cytotoxicity”.

The values above are taken from patent US12433962B2, “Probes for imaging b-amyloid and inhibition of β-amyloid aggregation” (The Hong Kong University of Science and Technology, priority 2021, dated 2025).
